Assays:
OATP1B1 = target: T1, OATP1B1 (Homo sapiens, UniProt Q9Y6L6); assay: Inhibition by CLF of estrone-3-sulfate transport in CHO cells expressing OATP1B1; format: cell-based; settings: 0, 5 or 50 μmol/L CLF, 1 μmol/L estrone-3-sulfate
T1 construct: expressed in transfected cells; host or cells: CHO cells (stably transfected; Treiber et al. 2007)
T1 sequence (Q9Y6L6 1-691): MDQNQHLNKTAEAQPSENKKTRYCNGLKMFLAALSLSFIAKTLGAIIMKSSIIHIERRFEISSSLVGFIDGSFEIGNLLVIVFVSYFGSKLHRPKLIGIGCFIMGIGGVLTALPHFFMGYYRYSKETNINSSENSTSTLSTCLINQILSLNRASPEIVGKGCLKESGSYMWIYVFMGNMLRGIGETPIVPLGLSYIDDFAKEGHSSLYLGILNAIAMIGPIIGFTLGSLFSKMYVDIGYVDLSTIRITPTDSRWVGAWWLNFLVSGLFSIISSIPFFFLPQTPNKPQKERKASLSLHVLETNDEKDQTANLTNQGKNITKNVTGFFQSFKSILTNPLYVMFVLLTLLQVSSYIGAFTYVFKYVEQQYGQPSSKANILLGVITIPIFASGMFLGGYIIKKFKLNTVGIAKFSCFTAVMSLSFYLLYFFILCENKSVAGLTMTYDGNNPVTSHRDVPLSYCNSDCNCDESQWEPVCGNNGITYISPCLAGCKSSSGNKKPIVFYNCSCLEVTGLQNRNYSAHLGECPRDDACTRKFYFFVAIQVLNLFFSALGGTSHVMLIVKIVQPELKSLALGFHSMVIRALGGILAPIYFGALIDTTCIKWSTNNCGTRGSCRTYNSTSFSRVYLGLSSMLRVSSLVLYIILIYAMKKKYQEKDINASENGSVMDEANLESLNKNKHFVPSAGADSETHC
Protocol: FIGS. 3A-3D relate to inhibition of transport activity of hepatocellular uptake transporters by CLF. CHO cells expressing NTCP, OATP1B1, OATP1B3 and OATP2B1 were incubated with 0, 5 or 50 μmol/L CLF and with the substrates, 2.5 μmol/L TC, 1 μmol/L estrone-3-sulfate, 10 μmol/L TC and 1 μmol/L estrone-3-sulfate, respectively. Data represent means±SD of triplicate determinations.
For all transport experiments, cells grown on 3 cm culture dishes were cultured for 24 hours in media supplemented with 5 mmol/L sodium-butyrate to increase expression levels of transfected transporters [Palermo D P et al., J Biotechnol 1991 June; 19(1):35-47]. • Transport experiments with uptake of radioactively labeled substrates: These experiments were performed as described by Huber R D et al. [Am J Physiol Cell Physiol 2007 February; 292(2):C795-C806]. • Transport experiments with uptake of CLF: Uptake was performed in the same buffers as for the radioactive substrates above. […] After complete solubilization, 1.5 ml was used to measure fluorescence in a Perkin-Elmer LS-5 luminescence-spectrometer set at λexe 486 nm (slit 10 nm) and λem 520 nm (slit 5 nm). Protein was determined with the bicinchoninic acid method using a kit from Interchim (Montfuçon, France). […]

wild type CHO cells = assay: Effect of CLF on substrate uptake in wild type CHO cells; format: cell-based
Protocol: For all transport experiments, cells grown on 3 cm culture dishes were cultured for 24 hours in media supplemented with 5 mmol/L sodium-butyrate to increase expression levels of transfected transporters [Palermo D P et al., J Biotechnol 1991 June; 19(1):35-47]. • Transport experiments with uptake of radioactively labeled substrates: These experiments were performed as described by Huber R D et al. [Am J Physiol Cell Physiol 2007 February; 292(2):C795-C806]. • Transport experiments with uptake of CLF: Uptake was performed in the same buffers as for the radioactive substrates above. For visualization of CLF uptake, cells were immediately inspected with a Leica-DM-IRBE-inverted-microcope (Leica-Microsystems, Wetzlar, Germany) equipped with a Hamamatsu-ORKA-ER-camera (Hamamatsu-Photonoics, Japan). To determine uptake of CLF, cells were solubilized by the addition of 2 ml 1% (w/v) Triton-X-100. After complete solubilization, 1.5 ml was used to measure fluorescence in a Perkin-Elmer LS-5 luminescence-spectrometer set at λexe 486 nm (slit 10 nm) and λem 520 nm (slit 5 nm). Protein was determined with the bicinchoninic acid method using a kit from Interchim (Montfuçon, France). Transport data from OATP expressing cell lines were corrected for binding by subtracting 0 min time points (blank values) and except for FIGS. 2B and 2C were normalized per minute. […]

ABCB11 = target: T2, ABCB11 (Homo sapiens, UniProt O95342); assay: CLF inhibition of TC transport into ABCB11 containing Sf21 membrane vesicles; format: biochemical; settings: ATP-dependent transport, read-out: concentration of CLF at which half maximal TC transport was observed
T2 construct: His tag (inferred from the anti-his probe used on the Western blot); made in house; host or cells: Sf21 insect cells, baculovirus (gift from Thompson); plasma membrane vesicles
Protocol: FIGS. 5A and 5B show CLF inhibition of DNP-SG and TC transport into ABCC2 (A) and ABCB11 (B) protein containing Sf21 membrane vesicles respectively. The values are expressed as a percentage of maximal ATP-dependent transport. Significance was tested using two-sided Student's t-test: *P<0.05 for transport in the presence vs. absence of inhibitor.
The production of recombinant baculovirus was as described by de Waart et al. [Liver Int 2006 April; 26(3):362-368]. ABCC3 and ABCG2-recombinant baculovirus were a kind gift from Borst [Breedveld P. et al., Cancer Res 2004 Aug. 15; 64(16):5804-5811 and Borst P. et al., J Biol Chem 2001 Dec. 7; 276(49):46400-46407.]. ABCB11-recombinant baculovirus was a kind gift from Thompson [Thompson R J et al., Gastroenterology 2002 November; 123(5):1649-1658]. Sf21 cells grown at 27° C. were infected with ABCB11, ABCC2, ABCC3 and ABCG2-cDNA containing baculovirus. Cells were harvested at 2-4 days after infection. […]
Transport studies with membrane vesicles were performed using the rapid filtration technique as described by Heijn M et al. [Am J Physiol 1992 January; 262(1 Pt 1):C104-C110]. Radiolabel was measured with a scintillation counter. […] Samples were pipetted in 96-well plates (Kartell, Noviglio, Italy) and the amount CLF quantitated by measurement of fluorescence at λexe 485 nm and λcm 520 nm using a NovoStar (BMG-labtech, Offenburg, Germany).

T2 sequence (O95342 whole entry): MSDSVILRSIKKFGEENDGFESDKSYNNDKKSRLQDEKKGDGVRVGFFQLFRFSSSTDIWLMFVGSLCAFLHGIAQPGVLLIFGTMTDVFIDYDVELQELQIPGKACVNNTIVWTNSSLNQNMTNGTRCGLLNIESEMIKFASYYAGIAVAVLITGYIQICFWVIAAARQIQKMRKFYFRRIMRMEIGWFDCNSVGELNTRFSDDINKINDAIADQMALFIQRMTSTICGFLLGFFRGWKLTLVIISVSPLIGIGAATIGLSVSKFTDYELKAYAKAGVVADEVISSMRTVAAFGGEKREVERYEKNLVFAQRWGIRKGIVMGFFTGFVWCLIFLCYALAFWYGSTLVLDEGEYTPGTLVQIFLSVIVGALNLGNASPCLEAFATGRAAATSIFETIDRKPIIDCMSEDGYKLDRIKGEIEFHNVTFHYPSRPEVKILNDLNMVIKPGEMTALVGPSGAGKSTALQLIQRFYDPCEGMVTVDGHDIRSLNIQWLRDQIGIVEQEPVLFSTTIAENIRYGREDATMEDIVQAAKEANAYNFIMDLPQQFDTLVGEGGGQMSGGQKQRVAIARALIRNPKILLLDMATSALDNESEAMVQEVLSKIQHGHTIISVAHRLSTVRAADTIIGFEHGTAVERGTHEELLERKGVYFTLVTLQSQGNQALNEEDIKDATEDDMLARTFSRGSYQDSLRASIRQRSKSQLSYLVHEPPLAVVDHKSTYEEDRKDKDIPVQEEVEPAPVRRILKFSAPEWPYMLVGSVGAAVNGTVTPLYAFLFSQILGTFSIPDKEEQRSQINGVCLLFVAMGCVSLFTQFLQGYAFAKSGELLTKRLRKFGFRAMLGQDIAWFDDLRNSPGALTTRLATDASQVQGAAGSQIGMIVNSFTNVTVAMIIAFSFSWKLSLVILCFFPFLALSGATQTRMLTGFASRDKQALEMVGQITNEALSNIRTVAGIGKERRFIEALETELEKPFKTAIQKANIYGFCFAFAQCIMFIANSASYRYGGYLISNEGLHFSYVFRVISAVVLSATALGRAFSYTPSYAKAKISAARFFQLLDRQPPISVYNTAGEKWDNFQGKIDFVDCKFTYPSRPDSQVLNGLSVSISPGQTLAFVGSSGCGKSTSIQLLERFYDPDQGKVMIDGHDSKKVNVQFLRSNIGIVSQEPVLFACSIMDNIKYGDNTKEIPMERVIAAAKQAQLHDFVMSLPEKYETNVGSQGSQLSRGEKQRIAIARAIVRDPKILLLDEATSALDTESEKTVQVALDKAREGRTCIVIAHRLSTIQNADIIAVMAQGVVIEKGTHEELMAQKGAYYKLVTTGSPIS

**Q.** How did the “inhibition of transport of estrone-3-sulfate mediated by OATP1B1 by CLF” value (OATP1B1) turn out when `CC(CCC(=O)NC(CCCCNC(=S)Nc1ccc(-c2c3ccc(=O)cc-3oc3cc(O)ccc23)c(C(=O)O)c1)C(=O)O)C1CCC2C3C(O)CC4CC(O)CCC4(C)C3CC(O)C12C` (stereo not drawn) [CLF, cholyl lysyl fluorescein] was run?
**A.** much less efficiently

**Q.** What about the “influence of CLF on substrate uptake in wild type cells” value (wild type CHO cells) of the same molecule?
**A.** no influence on substrate uptake

**Q.** And the IC50 (ABCB11)?
**A.** ~10 µM
